Each compound was assayed against T1, human GPR119 (Homo sapiens, UniProt Q8TDV5) (assay: AlphaScreen cAMP assay in Min-6/hGPR119 cells (activation of GPR119, stimulation of intracellular cAMP)). Settings: MIN6 cells stably transfected with human GPR119; 45 min incubation at room temperature; cAMP by AlphaScreen.
T1 construct: expressed in transfected cells
T1 sequence (Q8TDV5 1-335): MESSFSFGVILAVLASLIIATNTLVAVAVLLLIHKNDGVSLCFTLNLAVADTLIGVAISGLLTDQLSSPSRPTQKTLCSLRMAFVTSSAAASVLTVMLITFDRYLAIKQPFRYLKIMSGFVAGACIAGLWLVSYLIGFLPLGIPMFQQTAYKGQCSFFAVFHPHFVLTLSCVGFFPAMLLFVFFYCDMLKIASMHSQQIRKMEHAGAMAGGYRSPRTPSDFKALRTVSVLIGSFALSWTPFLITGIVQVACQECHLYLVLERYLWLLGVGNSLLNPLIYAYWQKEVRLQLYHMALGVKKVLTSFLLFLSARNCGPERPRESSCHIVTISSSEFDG
Assay type: cell-based
Experimental: The compounds of formula I according to the invention modulate the activity of the G-protein-coupled receptor GPR119. The effect of the compounds on the activation of GPR119 and on the stimulation of intracellular cAMP concentration is determined using the AlphaScreen cAMP Assay Kit (Cat. No. #6760625R) made by PerkinElmer.
MIN6 cells [Miyazaki J et al., Endocrinology. 1990 July; 127(1):126-32] are stably transfected with an expression vector for human GPR119 cDNA (Acc. No. NP_848566). Min-6/hGPR119 cells are cultured in DMEM, 10% FBS, 50 μM β-mercaptoethanol, 0.3 mg/mL Geniticin, 2 mM GlutaMAX at 37° C., 5% CO2. For the assay, the cells are seeded in Optiplates (white, 384-well, 160W-barcoded, TC, sterile with lid, Cat. No. #6007688 (Perkin Elmer); 10000 cells/well; 50 μL). The plates covered with lids are then incubated for 24 hours at 37° C., 5% CO2. After the medium is aspirated from the wells completely, 10 μl of the test compound are added, the compounds are diluted using stimulating buffer (140 mM NaCl, 3.6 mM KCl, 0.5 mM NaH2PO4, 0.5 mM MgSO4, 1.5 mM CaCl2, 10 mM Hepes, 5 mM NaHCO3; pH 7.4. 0.5 mM IBMX and 0.1% BSA, the final DMSO concentration is 1%). After 45 minutes incubation at room temperature (approx. 20° C.), the cAMP concentrations are determined using the AlphaScreen cAMP Assay Kit (Cat. No. #6760625R from PerkinElmer).

EC50	Structure (SMILES)
108 nM	CC(C)(C)OC(=O)N1CCC(c2cc3cc(-c4ccc(C(N)=O)cc4F)ncc3o2)CC1 [Example 7, 4-[5-(2-Fluoro-4-aminocarbonyl-phenyl)-furo[2,3-c]pyridin-2-yl]-piperidine-1-carboxylic acid tert-butyl ester]
86 nM	CS(=O)(=O)N1CC=C(c2cc3cc(C4CCN(c5ccc(C(F)(F)F)cn5)CC4)oc3cn2)CC1 [Example 23, 4-[5-(1-Methanesulfonyl-1,2,3,6-tetrahydro-pyridin-4-yl)-furo[2,3-c]pyridin-2-yl]-5′-trifluoromethyl-3,4,5,6-tetrahydro-2H-[1,2′]bipyridinyl]
310 nM	CC(C)(C)OC(=O)N1CCC(c2cc3cc(-c4ccncc4)ncc3o2)CC1 [Example 11, 4-(5-Pyridin-4-yl-furo[2,3-c]pyridin-2-yl)-piperidine-1-carboxylic acid tert-butyl ester]
64 nM	CCc1cnc(N2CCC(c3cc4cc(-c5ccc(S(C)(=O)=O)cc5F)ncc4o3)CC2)nc1 [Example 16, 2-[1-(5-Ethyl-pyrimidin-2-yl)-piperidin-4-yl]-5-(2-fluoro-4-methanesulfonyl-phenyl)-furo[2,3-c]pyridine]
45 nM	CCNC(=O)c1ccc(-c2cc3cc(C4CCN(C(=O)OC(C)(C)C)CC4)oc3cn2)cc1 [Example 6, 4-[5-(4-Ethylcarbamoyl-phenyl)-furo[2,3-c]pyridin-2-yl]-piperidine-1-carboxylic acid tert-butyl ester]
233 nM	CC(C)(C)OC(=O)N1CCC(c2cc3cc(-c4ccncc4F)ncc3o2)CC1 [Example 15, 4-[5-(3-Fluoro-pyridin-4-yl)-furo[2,3-c]pyridin-2-yl]-piperidine-1-carboxylic acid tert-butyl ester]
41 nM	CS(=O)(=O)N1CC=C(c2cc3cc(C4CCN(c5ncc(Cl)cn5)CC4)oc3cn2)CC1 [Example 25, 2-[1-(5-Chloro-pyrimidin-2-yl)-piperidin-4-yl]-5-(1-methanesulfonyl-1,2,3,6-tetrahydro-pyridin-4-yl)-furo[2,3-c]pyridine]
18 nM	CS(=O)(=O)N1CC=C(c2cc3cc(C4CCN(c5nnc(C(F)(F)F)s5)CC4)oc3cn2)CC1 [Example 26, 5-(1-Methanesulfonyl-1,2,3,6-tetrahydro-pyridin-4-yl)-2-[1-(5-trifluoromethyl-[1,3,4]thiadiazol-2-yl)-piperidin-4-yl]-furo[2,3-c]pyridine]
82 nM	CC(C)(C)OC(=O)N1CCC(c2cc3cc(N4CCN(S(C)(=O)=O)CC4)ncc3o2)CC1 [Example 13, 4-[5-(4-Methanesulfonyl-piperazin-1-yl)-furo[2,3-c]pyridin-2-yl]-piperidine-1-carboxylic acid tert-butyl ester]
73 nM	CC(C)(C)OC(=O)N1CCC(C)(c2cc3cc(C4=CCN(S(C)(=O)=O)CC4)ncc3o2)CC1 [Example 28, 4-[5-(1-Methanesulfonyl-1,2,3,6-tetrahydro-pyridin-4-yl)-furo[2,3-c]pyridin-2-yl]-4-methyl-piperidine-1-carboxylic acid tert-butyl ester]
13 nM	CC1(OC(=O)N2CCC(c3cc4cc(-c5ccc(S(C)(=O)=O)cc5F)ncc4o3)CC2)CC1 [Example 20, 4-[5-(2-Fluoro-4-methanesulfonyl-phenyl)-furo[2,3-c]pyridin-2-yl]-piperidine-1-carboxylic acid 1-methyl-cyclopropyl ester]
592 nM	CC(C)(C)OC(=O)N1CCC(c2cc3cc(-c4cnco4)ncc3o2)CC1 [Example 10, 4-(5-Oxazol-5-yl-furo[2,3-c]pyridin-2-yl)-piperidine-1-carboxylic acid tert-butyl ester]
281 nM	CC(C)(C)OC(=O)N1CCC(c2cc3cc(-c4ccc(C#N)cc4F)ncc3o2)CC1 [Example 8, 4-[5-(4-Cyano-2-fluoro-phenyl)-furo[2,3-c]pyridin-2-yl]-piperidine-1-carboxylic acid tert-butyl ester]
121 nM	CC(C)(C)OC(=O)N1CCC(c2cc3cc(-c4ccc(NS(C)(=O)=O)cc4)ncc3o2)CC1 [Example 4, 4-[5-(4-Methanesulfonylamino-phenyl)-furo[2,3-c]pyridin-2-yl]-piperidine-1-carboxylic acid tert-butyl ester]
263 nM	CC(C)(C)OC(=O)N1CCC(c2cc3cc(-c4ccc(C#N)c(F)c4)ncc3o2)CC1 [Example 5, 4-[5-(4-Cyano-3-fluoro-phenyl)-furo[2,3-c]pyridin-2-yl]-piperidine-1-carboxylic acid tert-butyl ester]
28 nM	CS(=O)(=O)N1CC=C(c2cc3cc(C4CCN(CC5(C(F)(F)F)CC5)CC4)oc3cn2)CC1 [Example 24, 5-(1-Methanesulfonyl-1,2,3,6-tetrahydro-pyridin-4-yl)-2-[1-(1-trifluoromethyl-cyclopropylmethyl)-piperidin-4-yl]-furo[2,3-c]pyridine]
140 nM	CC(C)(C)OC(=O)N1CCC(C)(c2cc3cc(-c4ccc(S(C)(=O)=O)cc4)ncc3o2)CC1 [Example 27, 4-[5-(4-Methanesulfonyl-phenyl)-furo[2,3-c]pyridin-2-yl]-4-methyl-piperidine-1-carboxylic acid tert-butyl ester]
51 nM	CS(=O)(=O)c1ccc(-c2cc3cc(C4CCN(CC5(C(F)(F)F)CC5)CC4)oc3cn2)c(F)c1 [Example 17, 5-(2-Fluoro-4-methanesulfonyl-phenyl)-2-[1-(1-trifluoromethyl-cyclopropylmethyl)-piperidin-4-yl]-furo[2,3-c]pyridine]
9 nM	CC(C)(C)OC(=O)N1CCC(c2cc3cc(-c4ccc(S(C)(=O)=O)cc4F)ncc3o2)CC1 [Example 3, 4-[5-(2-Fluoro-4-methanesulfonyl-phenyl)-furo[2,3-c]pyridin-2-yl]-piperidine-1-carboxylic acid tert-butyl ester]
12 nM	CC(C)OC(=O)N1CCC(c2cc3cc(-c4ccc(S(C)(=O)=O)cc4F)ncc3o2)CC1 [Example 19, 4-[5-(2-Fluoro-4-methanesulfonyl-phenyl)-furo[2,3-c]pyridin-2-yl]-piperidine-1-carboxylic acid isopropyl ester]
10 nM	CC1(OC(=O)N2CCC(c3cc4cc(C5=CCN(S(C)(=O)=O)CC5)ncc4o3)CC2)CC1 [Example 22, 4-[5-(1-Methanesulfonyl-1,2,3,6-tetrahydro-pyridin-4-yl)-furo[2,3-c]pyridin-2-yl]-piperidine-1-carboxylic acid 1-methyl-cyclopropyl ester]
567 nM	CC(C)(C)OC(=O)N1CCC(c2cc3cc(-c4ccc(C(=O)OCc5ccccc5)cc4)ncc3o2)CC1 [Example 9, 4-[5-(4-Benzyloxycarbonyl-phenyl)-furo[2,3-c]pyridin-2-yl]-piperidine-1-carboxylic acid tert-butyl ester]
62 nM	CC(C)(C)OC(=O)N1CCC(c2cc3cc(-c4ccc(S(C)(=O)=O)c(F)c4)ncc3o2)CC1 [Example 2, 4-[5-(3-Fluoro-4-methanesulfonyl-phenyl)-furo[2,3-c]pyridin-2-yl]-piperidine-1-carboxylic acid tert-butyl ester]
105 nM	CC(C)(C)OC(=O)N1CCC(c2cc3cc(-c4ccc(CS(C)(=O)=O)cc4)ncc3o2)CC1 [Example 12, 4-[5-(4-Methanesulfonylmethyl-phenyl)-furo[2,3-c]pyridin-2-yl]-piperidine-1-carboxylic acid tert-butyl ester]
19 nM	CC(C)OC(=O)N1CCC(c2cc3cc(C4=CCN(S(C)(=O)=O)CC4)ncc3o2)CC1 [Example 21, 4-[5-(1-Methanesulfonyl-1,2,3,6-tetrahydro-pyridin-4-yl)-furo[2,3-c]pyridin-2-yl]-piperidine-1-carboxylic acid isopropyl ester]
79 nM	CC(C)(F)CN1CCC(c2cc3cc(-c4ccc(S(C)(=O)=O)cc4F)ncc3o2)CC1 [Example 18, 5-(2-Fluoro-4-methanesulfonyl-phenyl)-2-[1-(2-fluoro-2-methyl-propyl)-piperidin-4-yl]-furo[2,3-c]pyridine]
58 nM	CC(C)(C)OC(=O)N1CCC(c2cc3cc(-c4ccc(S(C)(=O)=O)cc4)ncc3o2)CC1 [Example 1, 4-[5-(4-Methanesulfonyl-phenyl)-furo[2,3-c]pyridin-2-yl]-piperidine-1-carboxylic acid tert-butyl ester]
9 nM	CC(C)(C)OC(=O)N1CCC(c2cc3cc(C4=CCN(S(C)(=O)=O)CC4)ncc3o2)CC1 [Example 14, 4-[5-(1-Methanesulfonyl-1,2,3,6-tetrahydro-pyridin-4-yl)-furo[2,3-c]pyridin-2-yl]-piperidine-1-carboxylic acid tert-butyl ester]

Reference: patent US9012456B2, “Compounds, pharmaceutical compositions and uses thereof” (Boehringer Ingelheim International GmbH, priority 2012, dated 2015)
